# Data as given in patent publication US20130203805A1, “Methods for treating anemia using inhibitors of hypoxia-inducible factor (HIF) hydroxylase” (FIBROGEN, INC., priority 2001, published 2013).
# Like-named read-outs stand apart in the source and are kept apart here.
# Assay type: in vivo, Sprague Dawley male rats
# Conditions: rat, in vivo, ip
# Protocol: The ability of a compound of the invention to treat anemia associated with post-ischemic acute renal failure was assayed using a procedure described by Vaziri et al. (1994, Am J Physiol 266(3 Pt 2):[…]-6.) Fifteen Sprague Dawley male rats (280-300 g) were obtained from Charles River Laboratories. On day 0, rats were treated by intraperitoneal injection with a single dose of saline (control; n=3) at 8 ml/kg, or cisplatin (CP; Bedford Laboratories, Bedford Ohio) at either 7 mg/kg (7 ml/kg; n=6) or 10 mg/kg (10 ml/kg; n=6). Blood samples (0.2 ml) were collected on days 5, 9, and 16 as follows. […] Blood samples were processed for hematocrit as described above to determine the degree of anemia produced in each animal. […] Blood samples (0.5 ml) were collected as described above immediately prior to treatment and 4 days after treatment initiation. Blood samples were analyzed for CBC and reticulocyte counts as described above. On day 9 after initiation of oral treatment, a blood sample (0.1 ml) was collected and processed for hematocrit as described above.
structure (smiles),measurement,setting,value
"N.N.[Cl][Pt][Cl] [CP, cisplatin, reference compound]",reduction of hematocrit relative to controls,7 mg/kg,14%
same,reduction of hematocrit relative to controls,10 mg/kg,22%
